Laboratory results taken from patent publication US20140349994A1, “Novel 2-Amino-4,5,6,8-Tetrahydropyrazolo[3,4-b]Thiazolo [4,5-d]Azepine Derivatives and Their Use as Allosteric Modulators of Metabotropic Glutamate Receptors” (Addex Pharma S.A., priority 2012, published 2014).

Assays:
[1] = molecular target: T1, recombinant human mGluR4a receptors (Homo sapiens, UniProt Q14833); assay: mGluR4 assay on HEK-expressing human mGluR4: fluorescent cell based Ca2+ mobilization assay (FLIPR); conditions: HEK-293 cells expressing hmGluR4; enhancement of EC25 glutamate response; mean of at least three independent experiments in duplicate; read-out: Ca^2+ Flux (mean EC50)
T1 construct: expressed in transfected cells
Description: mGluR4 Assay on HEK-Expressing Human mGluR4
The compounds of the present invention are positive allosteric modulators of mGluR4 receptor. Their activity was examined on recombinant human mGluR4a receptors by detecting changes in intracellular Ca^2+ concentration, using the fluorescent Ca^2+-sensitive dye Fluo4-(AM) and a Fluorometric Imaging Plate Reader (FLIPR, Molecular Devices, Sunnyvale, Calif.).
The cDNA encoding the human metabotropic glutamate receptor (hmGluR4), (accession number NM 000841.1, NCBI Nucleotide database browser), was subcloned into an expression vector containing also the hygromycin resistance gene. In parallel, the cDNA encoding a G protein allowing redirection of the activation signal to intracellular calcium flux was subcloned into a different expression vector containing also the puromycin resistance gene. Transfection of both these vectors into HEK293 cells with PolyFect reagent (Qiagen) according to supplier's protocol, and hygromycin and puromycin treatment allowed selection of antibiotic resistant cells which had integrated stably one or more copies of the plasmids. Positive cellular clones expressing hmGluR4 were identified in a functional assay measuring changes in calcium fluxes in response to glutamate or selective known mGluR4 orthosteric agonists and antagonists.
HEK-293 cells expressing hmGluR4 were maintained in media containing DMEM, dialyzed Fetal Calf Serum (10%), Glutamax™ (2 mM), Penicillin (100 units/mL), Streptomycin (100 μg/mL), Geneticin (100 μg/mL) and Hygromycin-B (40 μg/mL) and puromycin (1 μg/mL) at 37° C.5% CO2.
Human mGluR4 HEK-293 cells were plated out 24 hours prior to FLIPR^384 assay in black-walled, clear-bottomed, poly-L-ornithine-coated 384-well plates at a density of 25,000 cells/well in a glutamine/glutamate free DMEM medium containing foetal bovine serum (10%), penicillin (100 units/mL) and streptomycin (100 μg/mL) at 37° C.5% CO2.
On the day of the assay, the medium was aspirated and the cells were loaded with a 3 μM solution of Fluo4-AM (LuBioScience, Lucerne, Switzerland) in 0.03% pluronic acid. After 1 hour at 37° C. 5% CO2, the non incorporated dye was removed by washing cell plate with the assay buffer and the cells were left in the dark at room temperature for six hours before testing. All assays were performed in a pH 7.4 buffered-solution containing 20 mM HEPES, 143 mM NaCl, 6 mM KCl, 1 mM MgSO4, 1 mM CaCl2, 0.125 mM sulfapyrazone and 0.1% glucose.
After 10 s of basal fluorescence recording, various concentrations of the compounds of the invention were added to the cells. Changes in fluorescence levels were first monitored for 180 s in order to detect any agonist activity of the compounds. Then the cells were stimulated by an EC25 glutamate concentration for an additional 110 s in order to measure enhancing activities of the compounds of the invention. EC25 glutamate concentration is the concentration giving 25% of the maximal glutamate response.
The concentration-response curves of representative compounds of the present invention were generated using the Prism GraphPad software (Graph Pad Inc, San Diego, USA). The curves were fitted to a four-parameter logistic equation:
(Y=Bottom+(Top-Bottom)(1+10̂((Log EC50−X)*Hill Slope)
allowing the determination of EC50 values.
The Table 3 below represents the mean EC50 obtained from at least three independent experiments of selected molecules performed in duplicate.

T1 sequence (Q14833 33-912): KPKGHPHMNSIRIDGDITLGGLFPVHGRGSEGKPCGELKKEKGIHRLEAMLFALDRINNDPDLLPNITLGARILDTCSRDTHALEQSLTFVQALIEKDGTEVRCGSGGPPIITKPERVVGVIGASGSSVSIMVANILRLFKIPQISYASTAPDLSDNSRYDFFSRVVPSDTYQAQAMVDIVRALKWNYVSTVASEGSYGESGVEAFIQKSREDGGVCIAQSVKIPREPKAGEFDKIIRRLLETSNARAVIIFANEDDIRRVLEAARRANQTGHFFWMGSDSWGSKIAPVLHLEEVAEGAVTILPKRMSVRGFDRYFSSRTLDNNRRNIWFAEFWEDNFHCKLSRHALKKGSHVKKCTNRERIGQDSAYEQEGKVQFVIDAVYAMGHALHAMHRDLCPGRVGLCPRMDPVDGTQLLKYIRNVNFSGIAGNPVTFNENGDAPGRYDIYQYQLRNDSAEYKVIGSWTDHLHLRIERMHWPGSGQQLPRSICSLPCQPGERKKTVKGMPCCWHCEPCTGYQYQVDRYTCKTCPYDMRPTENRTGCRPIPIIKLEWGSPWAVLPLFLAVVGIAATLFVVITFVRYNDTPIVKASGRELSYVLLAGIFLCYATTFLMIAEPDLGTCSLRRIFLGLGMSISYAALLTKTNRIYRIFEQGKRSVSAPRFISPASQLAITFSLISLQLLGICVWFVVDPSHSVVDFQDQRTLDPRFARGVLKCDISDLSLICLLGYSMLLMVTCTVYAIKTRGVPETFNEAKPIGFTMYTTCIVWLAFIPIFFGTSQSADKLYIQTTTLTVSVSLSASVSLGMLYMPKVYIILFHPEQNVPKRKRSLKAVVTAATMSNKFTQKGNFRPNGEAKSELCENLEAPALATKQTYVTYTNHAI

| Compound | melting point [°C] | EC50 [1] [µM] |
| --- | --- | --- |
| N#Cc1cccc(CN2CCc3sc(Nc4ncc(F)cn4)nc3-c3cn[nH]c32)c1 [Compound 1-1, 3-((2-(5-Fluoropyrimidin-2-ylamino)-4,5-dihydropyrazolo[3,4-b]thiazolo[4,5-d]azepin-6(7H)-yl)methyl)benzonitrile] | 282 to 284 | 0.1 to 1 |
| Fc1cnc(Nc2nc3c(s2)CCN(Cc2cccc(F)c2)c2[nH]ncc2-3)nc1 [Compound 1-2] | 265 to 270 | 1 to 10 |
| Cc1nc(Nc2nc3c(s2)CCN(CC2CC2)c2[nH]ncc2-3)ns1 [Compound 1-3] |  | 1 to 10 |
| Fc1cnc(Nc2nc3c(s2)CCN(Cc2cc(C4CC4)on2)c2[nH]ncc2-3)nc1 [Compound 1-4] |  | < 0.1 |
| Fc1cnc(Nc2nc3c(s2)CCN(Cc2cc(C4CC4)no2)c2[nH]ncc2-3)nc1 [Compound 1-7] | 266 to 268 | < 0.1 |
| Fc1cnc(Nc2nc3c(s2)CCN(Cc2csc(C4CC4)n2)c2[nH]ncc2-3)nc1 [Compound 1-8] | 240 to 245 | 0.1 to 1 |
| Cc1ccnc(Nc2nc3c(s2)CCN(Cc2ccc(Cl)cn2)c2[nH]ncc2-3)n1 [Compound 1-10] | 165 to 168 | < 0.1 |
| Fc1cnc(Nc2nc3c(s2)CCN(CC2CC(F)(F)C2)c2[nH]ncc2-3)nc1 [Compound 1-14] | > 280 | 0.1 to 1 |
| Cc1ccnc(Nc2nc3c(s2)CCNc2[nH]ncc2-3)n1 [Compound 1-52] | 229 to 232 | < 0.1 |
| COC(C)(C)CN1CCc2sc(Nc3ncc(F)cn3)nc2-c2cn[nH]c21 [Compound 1-124] | 282 to 285 | 0.1 to 1 |
| COCC(C)N1CCc2sc(Nc3ncc(F)cn3)nc2-c2cn[nH]c21 (centres unmarked) [Compound 1-125] | 212 to 215 | < 0.1 |
| Fc1cnc(Nc2nc3c(s2)CCN(C[C@@H]2CCCO2)c2[nH]ncc2-3)nc1 [Compound 1-126] |  | < 0.1 |
| Cc1cccc(Nc2nc3c(s2)CCN(C[C@@H]2CCCO2)c2[nH]ncc2-3)n1 [Compound 1-127] | 229 to 231 | 0.1 to 1 |
| COCCN1CCc2sc(Nc3ncc(F)c(C)n3)nc2-c2cn[nH]c21 [Compound 1-129, N-(5-Fluoro-4-methylpyrimidin-2-yl)-6-(2-methoxyethyl)-4,5,6,8-tetrahydropyrazolo[3,4-b]thiazolo[4,5-d]azepin-2-amine] | 261 to 263 | < 0.1 |
| CNCCCN1CCc2sc(Nc3ncc(F)cn3)nc2-c2cn[nH]c21 [Compound 1-130, N-(5-Fluoropyrimidin-2-yl)-6-(3-(methylamino)propyl)-4,5,6,8-tetrahydropyrazolo[3,4-b]thiazolo[4,5-d]azepin-2-amine] |  | 1 to 10 |
| COC[C@H](C)N1CCc2sc(Nc3ncc(F)cn3)nc2-c2cn[nH]c21 [Compound 1-131, N-(5-Fluoropyrimidin-2-yl)-6-(2-methoxy-1(S)-methyl-ethyl)-4,5,6,8-tetrahydropyrazolo[3,4-b]thiazolo[4,5-d]azepin-2-amine] | 249 to 251 | < 0.1 |
| OCCCN1CCc2sc(Nc3ncc(F)cn3)nc2-c2cn[nH]c21 [Compound 1-132, 3-(2-(5-Fluoropyrimidin-2-ylamino)-4,5-dihydropyrazolo[3,4-b]thiazolo[4,5-d]azepin-6(8H)-yl)propan-1-ol] |  | 0.1 to 1 |
| COCCOCCN1CCc2sc(Nc3ncc(F)cn3)nc2-c2cn[nH]c21 [Compound 1-133] | > 220 | < 0.1 |
| CCOCCN1CCc2sc(Nc3ncc(F)cn3)nc2-c2cn[nH]c21 [Compound 1-134] | 246 | < 0.1 |
| Fc1cnc(Nc2nc3c(s2)CCN(Cc2ccc(N4CCOCC4)cn2)c2[nH]ncc2-3)nc1 [Compound 1-135, N-(5-Fluoropyrimidin-2-yl)-6-((5-morpholinopyridin-2-yl)methyl)-4,5,6,8-tetrahydropyrazolo[3,4-b]thiazolo[4,5-d]azepin-2-amine] | 240 | < 0.1 |
| Fc1cnc(Nc2nc3c(s2)CCN(CCN2CCOCC2)c2[nH]ncc2-3)nc1 [Compound 1-136, N-(5-Fluoropyrimidin-2-yl)-6-(2-morpholinoethyl)-4,5,6,8-tetrahydropyrazolo[3,4-b]thiazolo[4,5-d]azepin-2-amine] |  | 0.1 to 1 |
| FCCN1CCc2sc(Nc3ncc(F)cn3)nc2-c2cn[nH]c21 [Compound 1-137] | 283 to 286 | < 0.1 |
| Cc1nc(CN2CCc3sc(Nc4ncc(F)cn4)nc3-c3c[nH]nc32)no1 [Compound 1-138, N-(5-Fluoropyrimidin-2-yl)-6-((5-methyl-1,2,4-oxadiazol-3-yl)methyl)-4,5,6,8-tetrahydropyrazolo[3,4-b]thiazolo[4,5-d]azepin-2-amine] |  | < 0.1 |
| Cn1ccc(CN2CCc3sc(Nc4ncc(F)cn4)nc3-c3cn[nH]c32)n1 [Compound 1-139] | 195 to 200 | 0.1 to 1 |

Further lines, results first:

| melting point [°C] | EC50 [1] [µM] | Compound |
| --- | --- | --- |
|  | < 0.1 | Fc1cnc(Nc2nc3c(s2)CCN(CCCN2CCOCC2)c2n[nH]cc2-3)nc1 [Compound 1-140, N-(5-Fluoropyrimidin-2-yl)-6-(3-morpholinopropyl)-4,5,6,8-tetrahydropyrazolo[3,4-b]thiazolo[4,5-d]azepin-2-amine] |
|  | 1 to 10 | CC(C)N1CCN(CCN2CCc3sc(Nc4ncc(F)cn4)nc3-c3cn[nH]c32)CC1 [Compound 1-141, N-(5-Fluoropyrimidin-2-yl)-6-(2-(4-isopropylpiperazin-1-yl)ethyl)-4,5,6,8-tetrahydropyrazolo[3,4-b]thiazolo[4,5-d]azepin-2-amine] |
| 198 to 202 | < 0.1 | COCc1ccc(CN2CCc3sc(Nc4ncc(F)cn4)nc3-c3cn[nH]c32)nc1 [Compound 1-143] |
| 227 | 0.1 to 1 | Fc1cnc(Nc2nc3c(s2)CCN(CCCN2CCCCC2)c2[nH]ncc2-3)nc1 [Compound 1-144] |
| 251 | < 0.1 | Cc1ccnc(Nc2nc3c(s2)CCN(CCCN2CCOCC2)c2[nH]ncc2-3)n1 [Compound 1-145] |
|  | < 0.1 | Cc1ccnc(Nc2nc3c(s2)CCN(Cc2noc(C)n2)c2[nH]ncc2-3)n1 [Compound 1-146] |
| > 260 | < 0.1 | CC(C)c1nc(CN2CCc3sc(Nc4ncc(F)cn4)nc3-c3cn[nH]c32)no1 [Compound 1-147] |
| 238 to 240 | 0.1 to 1 | Fc1cnc(Nc2nc3c(s2)CCN(CCCN2CCC(F)(F)CC2)c2[nH]ncc2-3)nc1 [Compound 1-148, 6-(3-(4,4-Difluoropiperidin-1-yl)propyl)-N-(5-fluoropyrimidin-2-yl)-4,5,6,8-tetrahydropyrazolo[3,4-b]thiazolo[4,5-d]azepin-2-amine] |
| > 290 | 1 to 10 | FCCCN1CCc2sc(Nc3ncc(F)cn3)nc2-c2cn[nH]c21 [Compound 1-149] |
|  | < 0.1 | Cc1noc(CN2CCc3sc(Nc4ncc(F)cn4)nc3-c3cn[nH]c32)n1 [Compound 1-150, N-(5-Fluoropyrimidin-2-yl)-6-((3-methyl-1,2,4-oxadiazol-5-yl)methyl)-4,5,6,8-tetrahydropyrazolo[3,4-b]thiazolo[4,5-d]azepin-2-amine] |
| 272 to 273 | < 0.1 | O=S1(=O)CCN(CCCN2CCc3sc(Nc4ncc(F)cn4)nc3-c3cn[nH]c32)CC1 [Compound 1-151, 4-(3-(2-((5-Fluoropyrimidin-2-yl)amino)-4,5-dihydropyrazolo[3,4-b]thiazolo[4,5-d]azepin-6(8H)-yl)propyl)thiomorpholine 1,1-dioxide] |
|  | 0.1 to 1 | Cc1ccnc(Nc2nc3c(s2)CCN(Cc2ncccn2)c2[nH]ncc2-3)n1 [Compound 1-152] |
| 223 | < 0.1 | CC1COCC(C)N1CCCN1CCc2sc(Nc3ncc(F)cn3)nc2-c2cn[nH]c21 (centres unmarked) [Compound 1-153] |
